Values joined by “and” are separate entries in the source; they are usually repeats but may differ in a detail not shown here. Equal values may be shown once. ± gives the uncertainty stated by the source.
Test: xn = mol fraction of the nth substance listed

c1ccc(Oc2ccccc2)cc1 + NCc1ccccc1
303.15 K, 101 kPa
Details	viscosity [mPa·s]
x2 = 0.1488	2.696 ± 0.058
x2 = 0.2823	2.409 ± 0.052
x2 = 0.4028	2.179 ± 0.047
x2 = 0.512	1.991 ± 0.043
x2 = 0.6114	1.839 ± 0.039
x2 = 0.7024	1.714 ± 0.037
x2 = 0.786	1.613 ± 0.034
x2 = 0.8629	1.531 ± 0.033
x2 = 0.934	1.465 ± 0.031

Cc1ccc(Cl)cc1 + Nc1cccc(Cl)c1
viscosity [mPa·s], 100 kPa
Details	x2 = 0.0757	x2 = 0.1649	x2 = 0.2579	x2 = 0.3519	x2 = 0.4697	x2 = 0.5707	x2 = 0.6749	x2 = 0.7826	x2 = 0.8935
303.15 K	1.052 ± 0.051	1.369 ± 0.051	1.698 ± 0.051	2.029 ± 0.052	2.441 ± 0.053	2.791 ± 0.053	3.15 ± 0.054	3.518 ± 0.055	3.895 ± 0.057
308.15 K	0.968 ± 0.051	1.253 ± 0.051	1.549 ± 0.051	1.847 ± 0.052	2.217 ± 0.052	2.531 ± 0.053	2.853 ± 0.054	3.184 ± 0.055	3.521 ± 0.056
313.15 K	0.899 ± 0.05	1.152 ± 0.051	1.414 ± 0.051	1.677 ± 0.051	2.003 ± 0.052	2.28 ± 0.053	2.564 ± 0.053	2.854 ± 0.054	3.15 ± 0.055
318.15 K	0.823 ± 0.05	1.045 ± 0.051	1.273 ± 0.051	1.502 ± 0.051	1.786 ± 0.052	2.027 ± 0.052	2.274 ± 0.053	2.526 ± 0.054	2.782 ± 0.055

CCCCCC(=O)[O-].[NH3+]CCO + O
viscosity [mPa·s], 101 kPa
Details	x1 = 0.0053	x1 = 0.0114	x1 = 0.0176	x2 = 0.9074	x2 = 0.9364	x2 = 0.9583	x2 = 0.9753
293.15 K	1.44 ± 0.08	1.692 ± 0.081	1.82 ± 0.12	12.85 ± 0.7	6.672 ± 0.46	3.858 ± 0.26	2.546 ± 0.16
298.15 K	1.26 ± 0.072	1.5 ± 0.078	1.68 ± 0.086	10.73 ± 0.6	5.73 ± 0.33	3.306 ± 0.19	2.04 ± 0.13
303.15 K	1.11 ± 0.067	1.35 ± 0.073	1.494 ± 0.075	9.048 ± 0.52	4.92 ± 0.25	2.868 ± 0.15	1.806 ± 0.1

CCn1cc[n+](C)c1.F[B-](F)(F)F + O
Details	viscosity [mPa·s]
293.15 K, 101 kPa, x2 = 0.3047	19.25 ± 1.3

OCCN(CCO)CCO + O
viscosity
Details	293.15 K	298.15 K	303.15 K	308.15 K	313.15 K	323.15 K
101 kPa, x1 = 0.029	2 ± 0.017 mPa·s	–	–	–	–	0.988 ± 0.009 mPa·s
101 kPa, x1 = 0.0434	–	2.499 ± 0.017 mPa·s	2.194 ± 0.014 mPa·s	–	1.661 ± 0.011 mPa·s	–
101 kPa, x1 = 0.0649	–	3.802 ± 0.025 mPa·s	3.446 ± 0.022 mPa·s	–	2.406 ± 0.016 mPa·s	–
101 kPa, x1 = 0.0966	–	6.839 ± 0.043 mPa·s	5.658 ± 0.035 mPa·s	–	4.005 ± 0.025 mPa·s	–
101 kPa, x1 = 0.11	8.51 ± 0.18 mPa·s	–	–	–	–	3.24 ± 0.036 mPa·s
101 kPa, x1 = 0.1312	–	11.65 ± 0.07 mPa·s	9.419 ± 0.054 mPa·s	–	6.419 ± 0.038 mPa·s	–
101 kPa, x1 = 0.1769	–	20.76 ± 0.13 mPa·s	16.89 ± 0.09 mPa·s	–	10.97 ± 0.06 mPa·s	–
101 kPa, x1 = 0.27	64.6 ± 1.9 mPa·s	–	–	–	–	14.8 ± 0.23 mPa·s
101 kPa, x1 = 0.2724	–	54.52 ± 0.26 mPa·s	41.37 ± 0.22 mPa·s	–	25.21 ± 0.13 mPa·s	–
101 kPa, x1 = 0.3481	–	96.45 ± 1.1 mPa·s	73.09 ± 0.53 mPa·s	–	41.11 ± 0.21 mPa·s	–
101 kPa, x1 = 0.4784	–	187.3 ± 4.3 mPa·s	131.4 ± 2.2 mPa·s	–	70.8 ± 0.47 mPa·s	–
101 kPa, x1 = 0.5814	–	278.1 ± 8.1 mPa·s	187.2 ± 4.3 mPa·s	–	97.64 ± 1.2 mPa·s	–
101 kPa, x1 = 0.7166	–	390.4 ± 14 mPa·s	269.9 ± 7.8 mPa·s	–	138.2 ± 2.4 mPa·s	–
101 kPa, x1 = 0.8347	–	472.7 ± 18 mPa·s	328.9 ± 10 mPa·s	–	166.2 ± 3.4 mPa·s	–
101 kPa, x1 = 0.9177	–	542.7 ± 22 mPa·s	369.7 ± 13 mPa·s	–	184.6 ± 4.1 mPa·s	–
101 kPa, x1 = 0.9724	–	585.3 ± 24 mPa·s	396.2 ± 14 mPa·s	–	196.3 ± 4.6 mPa·s	–
101.3 kPa, x1 = 0.0064	1.141 ± 0.022 mPa·s	0.998 ± 0.019 mPa·s	0.872 ± 0.019 mPa·s	0.765 ± 0.018 mPa·s	0.664 ± 0.014 mPa·s	0.555 ± 0.013 mPa·s
101.3 kPa, x1 = 0.0134	1.33 ± 0.034 mPa·s	1.161 ± 0.029 mPa·s	1.039 ± 0.025 mPa·s	0.914 ± 0.022 mPa·s	0.801 ± 0.02 mPa·s	0.688 ± 0.016 mPa·s
101.3 kPa, x1 = 0.0294	–	1.789 ± 0.034 mPa·s	1.559 ± 0.028 mPa·s and 1.57 ± 0.028 mPa·s	1.369 ± 0.025 mPa·s	–	0.988 ± 0.017 mPa·s

OCCOCCOCCOCCOCCO + O
viscosity [mPa·s], 100 kPa
Details	293.15 K	298.15 K	303.15 K	308.15 K	313.15 K	318.15 K	323.15 K
x2 = 0.023	70.88 ± 2	54.12 ± 1.2	42.28 ± 0.79	33.63 ± 0.53	27.22 ± 0.37	22.34 ± 0.29	18.57 ± 0.24
x2 = 0.081	72.83 ± 2.1	55.72 ± 1.2	43.21 ± 0.79	34.21 ± 0.53	27.55 ± 0.36	22.56 ± 0.28	18.68 ± 0.23
x2 = 0.144	71.38 ± 2	54.33 ± 1.2	42.28 ± 0.77	33.53 ± 0.52	27.01 ± 0.36	22.11 ± 0.28	18.34 ± 0.23
x2 = 0.166	70.74 ± 2	53.66 ± 1.4	41.76 ± 0.86	33.1 ± 0.55	26.67 ± 0.37	21.83 ± 0.27	18.08 ± 0.21
